Converted amounts (≈) assume the structure as drawn. Like-named read-outs stand apart in the source and are kept apart here.
Columns and labels:
[1] = in vivo; settings: male, Crj:CD IGS, rat, po, 5 mg/kg
Method: The Comparative compound was also evaluated by the same procedure.
The test substance was orally administered to fasted rats (7 week old male Crj:CD IGS rats purchased from Charles River Laboratories Japan, Inc.) at a dose of 5 mg/kg.
Animals of absorption test group (3 animals per group) were sacrificed by bleeding under etherization at 0.25, 0.5, 1, 2, 4, and 8 hours after the drug administration, and blood, lever, kidney, and lung were collected. The blood was centrifuged (3000 rpm×15 minutes, 4° C.) after coagulation to collect serum. Tissue was homogenized after adding 3 to 5 mL of 0.1 mol/l phosphate buffer (pH 7.0), and the supernatant was collected from the homogenate (3000 rpm×15 minutes, 4° C.).
Animals of excretion test group (3 animals per group) were placed in a metabolic cage, and the urine of 0 to 4 hours and 4 to 24 hours after the administration was collected in a water-cooled container. Simultaneously with the collection of the urine, the cage was also washed with about 15 mL of 0.1 mol/l phosphate buffer (pH 7.0) to collect the urine attached to the cage. For evaluation of conjugates such as glucuronide, the collected sample was also aliquoted and hydrolyzed with an equal amount of 1 mol/l aqueous solution of sodium hydroxide, and the hydrolysate was neutralized with 0.5 mol/l hydrochloric acid and measured for its concentration. The concentration was measured by LC-MS/MS method.
Pharmacokinetic parameters of the each drug in rat were calculated by from the time course of the average concentration by using pharmacokinetic analysis software PSAG-CP (AS Medica Inc.) in a manner not dependent on the model animal.

[2] = in vivo; settings: female, cynomolgus monkey, po, 5 mg/kg
[3] = format: in vivo; settings: 30 minutes observation
Method: The test substance was intracisternally administered to male Slc:ddy mice (6 animals per group), and the convulsion and death were monitored for each cage until 30 minutes after the administration. The test substance was dissolved in 5 μl of 1% aqueous solution of lactic acid, and the dose was 5, 15, or 50 μg per animal.

[4] = tested on: bone marrow cells (polychromatic erythrocytes); experiment: mouse bone marrow micronucleus test; format: in vivo, Slc:ddY male mice; settings: single i.v. dose, 24 h, Example 2: 50, 100 mg/kg, Example 3: 100, 150 mg/kg, Example 9: 50, 100, 150 mg/kg
Method: The control was 0.1 mol/l NaOH/physiological saline solvent, and the positive control was cyclophosphamide (cyclophoshamide, CP) dissolved and diluted in physiological saline. All samples were sterilized by filtering through Milex GS filter (0.22 μm). Each solution was intravenously administered at a dose of 10 mL/kg in single dose at an administration rate of 0.2 mL/min.
Bone marrow cells were collected from thigh bone at 24 hours after the administration, and smear preparation was prepared. After staining with acridine orange, 1000 polychromatic erythrocytes per animal were observed under fluorescence microscope to count frequency of micrronucleated polychromatic erythrocyte and ratio of the orthochromatic erythrocytes to the polychromatic erythrocyte in 1000 erythrocytes.

[5] = design: species or system guinea pigs (Slc:Hertley); settings: male, Slc:Hertley, guinea pig, in vivo
Method: Guinea pig maximization test (GPMT) which is a widely accepted model for delayed antigenicity was conducted according to the method of Mugnusson et al. (J. invest. Dermatol., 52, 1969) by using a cutaneous sensitization concentration of 1% and a patch sensitization and induction concentration of 10%. At day 1, the animal was sensitized by cutaneously administering the test substance (the quinolone compounds and the control: vehicle, vaseline) (1% solution in physiological saline+FCA emulsion) at the back of the head of the shaved guinea pigs (7 week old male Slc:Hertley). At day 7, lauryl sodium sulfate (SLC) was applied for stimulus (adjuvant treatment), and on the next day, the test substance coated on a wax paper was patched onto the shaved skin to for sealed sensitization, and after 48 hours (at day 10), the waxed paper was removed. The skin reaction was observed upon the removal. On day 22, the test substance (10%) was patched onto the anterior side of the body for induction, and the induction patching was removed after 24 hours. On the next day (at day 24) and the next day (at day 25), the skin reaction was evaluated according to the description of the document as mentioned above. Erythema and edema were scored, and the case with the total score of 2 or higher was evaluated to be positive with the maximum of the score being 7.

[6] = female, cynomolgus monkey, in vivo
[7] = tested on: Mycobacterium tuberculosis (sensitive bacteria); experiment: anti-Mycobacterium tuberculosis (sensitive bacteria) activity, MIC; format: cell-based
[8] = tested on: Mycobacterium tuberculosis (quinolone sensitive); experiment: anti-Mycobacterium tuberculosis (quinolone sensitive) activity, MIC; format: cell-based
[9] = tested on: S. pneumoniae, J24 (penicillin-intermediate resistant bacteria); experiment: antibacterial activity (MIC), standard method of Japanese Society of Chemotherapy
[10] = tested on: penicillin resistant Streptococcus pneumoniae (PRSP) strain 033806; experiment: mouse local lung infection model by PRSP
[11] = tested on: E. coli NIHJ; experiment: antibacterial activity (MIC), standard method of Japanese Society of Chemotherapy; settings: Escherichia coli
[12] = tested on: P. vulgaris, 08601; experiment: as above; settings: Proteus vulgaris, 08601, P. vulgaris
[13] = tested on: P. aeruginosa, 32104; experiment: as above; settings: Pseudomonas aeruginosa
[14] = tested on: P. aeruginosa, 32121; experiment: as above; settings: Pseudomonas aeruginosa
[15] = tested on: S. epidermidis, 56500; experiment: as above; settings: Staphylococcus epidermidis, 56500, S. epidermidis
[16] = tested on: S. aureus, 87037 (LVFX-resistant MRSA); experiment: as above; settings: Staphylococcus aureus, MRSA, S. aureus, 87037 (LVFX-resistant MRSA)

Compound: COc1c(N2CC(C)(N)C3(CC3)C2)c(F)cc2c(=O)c(C(=O)O)cn([C@@H]3C[C@@H]3F)c12 (stereo partly drawn) [Example 9, 7-(7-Amino-7-methyl-5-azaspiro[2.4]heptan-5-yl)-6-fluoro-1-[(1R,2S)-2-fluorocyclopropyl]-8-methoxy-1,4-dihydro-4-oxoquinoline-3-carboxylic acid]
- AUC(0-t) [1]: 3080 ng·h/mL
- Cmax [1]: 1220 ng/mL
- AUC(0-t) [2]: 16900 ng·h/mL
- Cmax [2]: 2180 ng/mL
- half-life [2]: 4.8 h
- convulsant activity (animals affected / 6 animals per group) ([3]; 5 μg/mouse intracisternal): 0/6
- convulsant activity (animals affected / 6 animals per group) ([3]; 15 μg/mouse intracisternal): 2/6
- convulsant activity (animals affected / 6 animals per group) ([3]; 50 μg/mouse intracisternal): 6/6
- micronucleus induction rate versus control, evaluation result [4]: negative
- Average score in GPMT [5]: 0
- blood penetration, times higher than Comparative compound 1 [6]: about 2.5 times
- urine excretion rate, times higher than Comparative compound 1 [6]: more than 2 times
- Recovery (%) in urine in relation to the amount administered, Recovery (%) including conjugate ([6]; 5 mg/kg): 59.5%
- MIC ([7]; H37RV, strain H37Rv): 0.03 µg/mL (≈ 0.0715 µM)
- MIC ([7]; strain Kurono): 0.03 µg/mL (≈ 0.0715 µM)
- MIC ([7]; strain Ravenel): 0.03 µg/mL (≈ 0.0715 µM)
- MIC ([7]; strain TB-s 2): 0.06 µg/mL (≈ 0.143 µM)
- MIC ([7]; strain TB-s 3): 0.06 µg/mL (≈ 0.143 µM)
- MIC ([7]; strain TB-s 4): 0.06 µg/mL (≈ 0.143 µM)
- MIC ([7]; strain TB-s 5): 0.06 µg/mL (≈ 0.143 µM)
- MIC ([7]; strain TB-s 6): 0.06 µg/mL (≈ 0.143 µM)
- MIC ([7]; strain TB-s 7): 0.06 µg/mL (≈ 0.143 µM)
- MIC ([7]; strain TB-s 8): 0.03 µg/mL (≈ 0.0715 µM)
- MIC ([7]; strain TB-s 9): 0.06 µg/mL (≈ 0.143 µM)
- MIC ([7]; strain TB-s 10): 0.03 µg/mL (≈ 0.0715 µM)
- MIC ([7]; strain TB-s 11): 0.06 µg/mL (≈ 0.143 µM)
- MIC ([7]; strain TB-s 12): 0.125 µg/mL (≈ 0.298 µM)
- MIC ([7]; strain TB-s 13): 0.06 µg/mL (≈ 0.143 µM)
- MIC ([7]; strain TB-s 14): 0.06 µg/mL (≈ 0.143 µM)
- MIC ([7]; strain TB-s 15): 0.06 µg/mL (≈ 0.143 µM)
- MIC ([7]; strain TB-s 16): 0.06 µg/mL (≈ 0.143 µM)
- MIC ([7]; strain TB-s 17): 0.06 µg/mL (≈ 0.143 µM)
- MIC ([7]; strain TB-s 18): 0.06 µg/mL (≈ 0.143 µM)
- MIC ([7]; strain TB-s 19): 0.06 µg/mL (≈ 0.143 µM)
- MIC ([7]; strain TB-s 20): 0.06 µg/mL (≈ 0.143 µM)
- MIC ([7]; strain TB-s 21): 0.06 µg/mL (≈ 0.143 µM)
- MIC ([7]; strain TB-s 22): 0.03 µg/mL (≈ 0.0715 µM)
- MIC ([8]; strain 1 (QR-3)): 0.125 µg/mL (≈ 0.298 µM)
- MIC ([8]; strain 2 (QR-6)): 0.5 µg/mL (≈ 1.19 µM)
- MIC ([8]; strain 3 (QR-1)): 0.25 µg/mL (≈ 0.596 µM)
- MIC ([8]; strain 4 (QR-9)): 0.25 µg/mL (≈ 0.596 µM)
- MIC ([8]; strain MDR 1): 0.125 µg/mL (≈ 0.298 µM)
- MIC ([8]; strain MDR 3): 0.125 µg/mL (≈ 0.298 µM)
- MIC ([8]; strain MDR 4): 0.25 µg/mL (≈ 0.596 µM)
- MIC ([8]; strain MDR 5): 0.5 µg/mL (≈ 1.19 µM)
- MIC ([8]; strain MDR 7): 0.125 µg/mL (≈ 0.298 µM)
- MIC ([8]; strain MDR 9): 0.125 µg/mL (≈ 0.298 µM)
- MIC ([8]; strain MDR 12): 0.125 µg/mL (≈ 0.298 µM)
- MIC ([8]; strain S 1): 1 µg/mL (≈ 2.38 µM)
- MIC [9]: 0.1 µg/mL (≈ 0.238 µM)
- therapeutic effect (number of bacteria in the lung) compared with comparative compound 1 at the same dose ([10]; CBA/JNCrlj mice, oral at 2 and 8 hours after infection, 25, 50, and 100 mg/kg/day (FIG. 2)): no significant difference
- in vivo antibacterial activity for the test bacteria relative to comparative compound 1 ([10]; PRSP strain 033806): about ¼
- MIC [11]: 0.025 µg/mL (≈ 0.0596 µM)
- MIC [12]: 0.025 µg/mL (≈ 0.0596 µM)
- MIC [13]: 0.39 µg/mL (≈ 0.93 µM)
- MIC [14]: 0.2 µg/mL (≈ 0.477 µM)
- MIC [15]: 0.1 µg/mL (≈ 0.238 µM)
- MIC [16]: 0.78 µg/mL (≈ 1.86 µM)

From patent publication US7563805B2, “Tri-, tetra-substituted-3-aminopyrrolidine derivative” (Daiichi Pharmaceutical Co., Ltd., priority 2005, dated 2009)
